Reference: paper PMC6832230, “Anti-Inflammatory Activity of Some Characteristic Constituents from the Vine Stems of Spatholobus suberectus” (Molecules, 2019)
Read-outs that look alike come from different tables or passages of the source.

What was measured:
[1] = tested on: nitric oxide (NO) production in RAW264.7 macrophages stimulated by lipopolysaccharide; test: NO inhibition assay (Griess method) in LPS-stimulated RAW264.7 cells; type: cell-based; conditions: for IC50: read-out: IC50 of inhibition of NO production; for SI (selectivity index): calculated from CC50 and IC50
Text: As a kind of pro-inflammatory mediator, NO plays a complex role and participates in many different kinds of inflammatory reactions, the level of which usually varies to different pathological degrees. The isolated novel compounds and 10 known ones in this research were chosen to evaluate the activity of inhibiting NO released by RAW264.7 cells after being stimulated by LPS.
The Griess method is generally used for determining NO concentration in anti-inflammatory experiments. The supernatant removed from the 96-well plates mentioned in Section 3.3.1 was interacted with Griess reagent (100 μL), and the absorbance was measured at 540 nm after 15 min. Two drugs, L-NIL and IND, were used as positive controls for comparative analysis in the test.
(§1) The IC50 values for NO inhibitory effects were calculated using SPSS v.20.0 (SPSS Inc., Chicago, IL, USA) and results were given as means ± SD. The mRNA expression levels were compared using variance analysis with GraphPad Prism 7.0 (GraphPad Software Inc., San Diego, CA, USA), and results were expressed as means ± SEM. All tests were carried out in triplicate.

[2] = Cytotoxicity assay (MTT); conditions: mouse
Protocol: The toxicities of different concentrations of compounds to cells were evaluated using the MTT assay [32, 33]. Firstly, the RAW 264.7 cells were maintained in DMEM with 10% FBS at 37 °C in a humid atmosphere containing 5% CO2. Then, the cells were seeded in 96-well plates (3 × 10^4 cells/well) after being passaged three times at a 1:3 split ratio. […] After being cultured for 24 h, the supernatant (100 μL) was transferred out and MTT (5 mg/mL, 20 μL for each well) was added, and the mixed solvent of 0.012 M HCl, 5% i-PrOH, and 10% sodium dodecyl sulfate (100 μL) was added 4 h later. The absorbance value was measured at 492 nm by a Thermo Multiskan MK3 microplate reader (Thermo-Labsystem, Franklin, MA, USA).

[3] = tested on: TNF-α mRNA; test: qPCR assay of TNF-α mRNA expression in LPS-stimulated RAW264.7 cells; type: cell-based; conditions: RAW264.7 cells, 24 h
Protocol: (§2) The RAW264.7 cells were seeded in 12-well plates at 3 × 10^4 cells/well; after being stimulated by LPS (1.0 μg/mL) and treated with two different concentrations of compounds for 24 h, the total RNA was extracted from the cells with Trizol reagent (Invitrogen, Thermo Fisher Scientific Inc., Waltham, MA, USA). After measuring the concentration, 1 μg of total RNA was used to obtain complementary DNA (cDNA) with a qRT super mix (Bimake Co., Ltd., Houston, SD, USA). The amplification of cDNA was carried out on a Quantitative RT-PCR system (Agilent Technologies, Stratagene, Inc., Santa Clara, CA, USA) using SYBR green qPCR master mix (Bimake Co., Ltd., Houston, SD, USA). The thermal cycling conditions were as follows: 95 °C for 10 min, 40 cycles of 95 °C for 30 s, 55 °C for 1 min, and 72 °C for 1 min, followed by 95 °C for 1 min, 55 °C for 30 s, and 95 °C for 30 s.
as §1

[4] = tested on: iNOS mRNA; test: qPCR assay of iNOS mRNA expression in LPS-stimulated RAW264.7 cells; type: cell-based; conditions: RAW264.7 cells, 24 h
Protocol: as §2, §1

[5] = tested on: COX-2 mRNA; test: qPCR assay of COX-2 mRNA expression in LPS-stimulated RAW264.7 cells; type: cell-based; conditions: RAW264.7 cells, 24 h
Protocol: as §2, §1

[6] = tested on: IL-1β mRNA; test: qPCR assay of IL-1β mRNA expression in LPS-stimulated RAW264.7 cells; type: cell-based; conditions: RAW264.7 cells, 24 h
Protocol: as §2, §1

[7] = Mus musculus, RAW264.7, 24 h, RAW264.7 cells, LPS 1 μg/mL, 24 h, Griess, n = 3, mean ± SD
[8] = RAW 264.7 cells, CC50 (median cytotoxic concentration), RAW 264.7 cells, MTT, 24 h, n = 3, >200: CC50 could not be obtained, cell survival rate >98% at 200–6.25 μM
[9] = LPS 1.0 μg/mL, concentration not given
[10] = at 20 μM and 30 μM, vs LPS group

Row | Compound | IC50 [1, 7] [µM] | SI (selectivity index) [1] | CC50 at 24 h [2, 8] [µM] | IC50 ([1]; Mus musculus, RAW264.7, 24 h) [µM] | effect on mRNA expression of TNF-α [3, 9] | effect on mRNA expression of TNF-α [3, 10] | effect on mRNA expression of iNOS [4, 9] | effect on mRNA expression of iNOS [4, 10] | effect on mRNA expression of COX-2 [5, 9] | effect on mRNA expression of COX-2 [5, 10] | CC50 at 24 h [2] [µM] | effect on mRNA expression of IL-1β [6, 9] | IC50 ([1]; RAW264.7 cells, LPS 1 μg/mL, 24 h, Griess, n = 3, mean ± SD) [µM] | effect on mRNA expression of IL-1β [6, 10]
1 | COc1ccc2c(c1)c(CC(=O)O)c(C)n2C(=O)c1ccc(Cl)cc1 [IND, indomethacin, reference compound] | 55.4 ± 3.71 | 11.43 | 633 ± 75.1 |  |  |  |  |  |  |  |  |  |  | 
2 | CC(=N)NCCCC[C@H](N)C(=O)O [L-NIL, L-N^6-(1-iminoethyl)-lysine, reference compound] |  | >10.48 | > 200 | 19.1 ± 1.18 |  |  |  |  |  |  |  |  |  | 
3 | O=c1c(-c2ccc(O)cc2)coc2cc(O)cc(O)c12 [Compound 9, genistein] | 16.9 ± 3.39 | 210.84 |  |  | can reduce | strikingly downregulated | can reduce | strikingly downregulated | can reduce | strikingly downregulated | > 200 |  |  | 
4 | CCCCCC(=O)CCC(=O)OCCc1ccc(O)c(OC)c1 [Compound 5, Homovanillyl-4-oxo-nonanoate] | 45.9 ± 4.76 | >4.36 | > 200 |  |  |  |  |  |  |  |  |  |  | 
5 | COc1ccc([C@@H]2COc3cc(O)ccc3C2)c(O[C@@H]2O[C@H](CO)[C@@H](O)[C@H](O)[C@H]2O)c1 [Compound 15, (3R)-vestitol-2′-O-β-D-glucopyranoside] | > 200 | <1.98 | > 200 |  |  |  |  |  |  |  |  |  |  | 
6 | O=c1c(-c2ccc(O)cc2)coc2cc(O[C@@H]3O[C@H](CO)[C@@H](O)[C@H](O)[C@H]3O)cc(O)c12 [Compound 13, genistin] | 36.4 ± 2.47 |  | > 200 |  | could not inhibit |  | could not inhibit |  | could not inhibit |  |  | declined sharply |  | 
7 | COc1ccc(-c2cc3cc(O)c(O)cc3oc2=O)c(OC)c1OC [Compound 6, 3-(2′,3′,4′-trimethoxyphenyl)-6,7-dihydroxycoumarin] | 28.3 | 24.81 | > 200 |  | can reduce | reduced significantly | can reduce | reduced significantly | can reduce |  |  |  | 28.3 ± 6.44 | reduced significantly
8 | O=C1C[C@@H](c2ccc(O)cc2)Oc2cc(O)ccc21 [Compound 8, liquiritigenin] | 16.3 ± 4.45 | 19.25 | > 200 |  | significantly downregulate |  |  |  |  |  |  |  |  | 
